According to patent publication US20160166604A1, “Thiol-Sensitive Positive Inotropes” (priority 2005, published 2016):
Entries after “also recorded” stand apart in the source; their conditions may differ.

What was measured:
[1] = Kinetics of AS decomposition in Tyrode solution; assay type: physicochemical; details: after ~1000 sec (16 min); Tyrode solution pH 7.4, room temperature; identical for 0.1-1 mM AS
Procedure: FIG. IA-FIG. 1D show the effects of HNO donor AS on sarcomere shortening in isolated mouse ventricular myocytes.
At physiological pH, AS decomposes to produce HNO and nitrite. Whether nitrite could play a role in the observed responses was therefore tested. […] Identical results were obtained for 0.1-1 mM AS. Thus, at time of functional analysis, 25-250 μM NO2^− is expected; however, such levels (and higher or lower doses) had no effect on sarcomere shortening (FIG. 1H).

[2] = molecular target: T1, RyR2 (Mus musculus, UniProt E9Q401); assay: Spontaneous Ca2+ sparks and spark frequency in intact murine myocytes; assay type: cell-based
T1 construct: endogenous in cells; host or cells: freshly isolated adult mouse cardiac myocytes
T1 sequence (E9Q401 whole entry): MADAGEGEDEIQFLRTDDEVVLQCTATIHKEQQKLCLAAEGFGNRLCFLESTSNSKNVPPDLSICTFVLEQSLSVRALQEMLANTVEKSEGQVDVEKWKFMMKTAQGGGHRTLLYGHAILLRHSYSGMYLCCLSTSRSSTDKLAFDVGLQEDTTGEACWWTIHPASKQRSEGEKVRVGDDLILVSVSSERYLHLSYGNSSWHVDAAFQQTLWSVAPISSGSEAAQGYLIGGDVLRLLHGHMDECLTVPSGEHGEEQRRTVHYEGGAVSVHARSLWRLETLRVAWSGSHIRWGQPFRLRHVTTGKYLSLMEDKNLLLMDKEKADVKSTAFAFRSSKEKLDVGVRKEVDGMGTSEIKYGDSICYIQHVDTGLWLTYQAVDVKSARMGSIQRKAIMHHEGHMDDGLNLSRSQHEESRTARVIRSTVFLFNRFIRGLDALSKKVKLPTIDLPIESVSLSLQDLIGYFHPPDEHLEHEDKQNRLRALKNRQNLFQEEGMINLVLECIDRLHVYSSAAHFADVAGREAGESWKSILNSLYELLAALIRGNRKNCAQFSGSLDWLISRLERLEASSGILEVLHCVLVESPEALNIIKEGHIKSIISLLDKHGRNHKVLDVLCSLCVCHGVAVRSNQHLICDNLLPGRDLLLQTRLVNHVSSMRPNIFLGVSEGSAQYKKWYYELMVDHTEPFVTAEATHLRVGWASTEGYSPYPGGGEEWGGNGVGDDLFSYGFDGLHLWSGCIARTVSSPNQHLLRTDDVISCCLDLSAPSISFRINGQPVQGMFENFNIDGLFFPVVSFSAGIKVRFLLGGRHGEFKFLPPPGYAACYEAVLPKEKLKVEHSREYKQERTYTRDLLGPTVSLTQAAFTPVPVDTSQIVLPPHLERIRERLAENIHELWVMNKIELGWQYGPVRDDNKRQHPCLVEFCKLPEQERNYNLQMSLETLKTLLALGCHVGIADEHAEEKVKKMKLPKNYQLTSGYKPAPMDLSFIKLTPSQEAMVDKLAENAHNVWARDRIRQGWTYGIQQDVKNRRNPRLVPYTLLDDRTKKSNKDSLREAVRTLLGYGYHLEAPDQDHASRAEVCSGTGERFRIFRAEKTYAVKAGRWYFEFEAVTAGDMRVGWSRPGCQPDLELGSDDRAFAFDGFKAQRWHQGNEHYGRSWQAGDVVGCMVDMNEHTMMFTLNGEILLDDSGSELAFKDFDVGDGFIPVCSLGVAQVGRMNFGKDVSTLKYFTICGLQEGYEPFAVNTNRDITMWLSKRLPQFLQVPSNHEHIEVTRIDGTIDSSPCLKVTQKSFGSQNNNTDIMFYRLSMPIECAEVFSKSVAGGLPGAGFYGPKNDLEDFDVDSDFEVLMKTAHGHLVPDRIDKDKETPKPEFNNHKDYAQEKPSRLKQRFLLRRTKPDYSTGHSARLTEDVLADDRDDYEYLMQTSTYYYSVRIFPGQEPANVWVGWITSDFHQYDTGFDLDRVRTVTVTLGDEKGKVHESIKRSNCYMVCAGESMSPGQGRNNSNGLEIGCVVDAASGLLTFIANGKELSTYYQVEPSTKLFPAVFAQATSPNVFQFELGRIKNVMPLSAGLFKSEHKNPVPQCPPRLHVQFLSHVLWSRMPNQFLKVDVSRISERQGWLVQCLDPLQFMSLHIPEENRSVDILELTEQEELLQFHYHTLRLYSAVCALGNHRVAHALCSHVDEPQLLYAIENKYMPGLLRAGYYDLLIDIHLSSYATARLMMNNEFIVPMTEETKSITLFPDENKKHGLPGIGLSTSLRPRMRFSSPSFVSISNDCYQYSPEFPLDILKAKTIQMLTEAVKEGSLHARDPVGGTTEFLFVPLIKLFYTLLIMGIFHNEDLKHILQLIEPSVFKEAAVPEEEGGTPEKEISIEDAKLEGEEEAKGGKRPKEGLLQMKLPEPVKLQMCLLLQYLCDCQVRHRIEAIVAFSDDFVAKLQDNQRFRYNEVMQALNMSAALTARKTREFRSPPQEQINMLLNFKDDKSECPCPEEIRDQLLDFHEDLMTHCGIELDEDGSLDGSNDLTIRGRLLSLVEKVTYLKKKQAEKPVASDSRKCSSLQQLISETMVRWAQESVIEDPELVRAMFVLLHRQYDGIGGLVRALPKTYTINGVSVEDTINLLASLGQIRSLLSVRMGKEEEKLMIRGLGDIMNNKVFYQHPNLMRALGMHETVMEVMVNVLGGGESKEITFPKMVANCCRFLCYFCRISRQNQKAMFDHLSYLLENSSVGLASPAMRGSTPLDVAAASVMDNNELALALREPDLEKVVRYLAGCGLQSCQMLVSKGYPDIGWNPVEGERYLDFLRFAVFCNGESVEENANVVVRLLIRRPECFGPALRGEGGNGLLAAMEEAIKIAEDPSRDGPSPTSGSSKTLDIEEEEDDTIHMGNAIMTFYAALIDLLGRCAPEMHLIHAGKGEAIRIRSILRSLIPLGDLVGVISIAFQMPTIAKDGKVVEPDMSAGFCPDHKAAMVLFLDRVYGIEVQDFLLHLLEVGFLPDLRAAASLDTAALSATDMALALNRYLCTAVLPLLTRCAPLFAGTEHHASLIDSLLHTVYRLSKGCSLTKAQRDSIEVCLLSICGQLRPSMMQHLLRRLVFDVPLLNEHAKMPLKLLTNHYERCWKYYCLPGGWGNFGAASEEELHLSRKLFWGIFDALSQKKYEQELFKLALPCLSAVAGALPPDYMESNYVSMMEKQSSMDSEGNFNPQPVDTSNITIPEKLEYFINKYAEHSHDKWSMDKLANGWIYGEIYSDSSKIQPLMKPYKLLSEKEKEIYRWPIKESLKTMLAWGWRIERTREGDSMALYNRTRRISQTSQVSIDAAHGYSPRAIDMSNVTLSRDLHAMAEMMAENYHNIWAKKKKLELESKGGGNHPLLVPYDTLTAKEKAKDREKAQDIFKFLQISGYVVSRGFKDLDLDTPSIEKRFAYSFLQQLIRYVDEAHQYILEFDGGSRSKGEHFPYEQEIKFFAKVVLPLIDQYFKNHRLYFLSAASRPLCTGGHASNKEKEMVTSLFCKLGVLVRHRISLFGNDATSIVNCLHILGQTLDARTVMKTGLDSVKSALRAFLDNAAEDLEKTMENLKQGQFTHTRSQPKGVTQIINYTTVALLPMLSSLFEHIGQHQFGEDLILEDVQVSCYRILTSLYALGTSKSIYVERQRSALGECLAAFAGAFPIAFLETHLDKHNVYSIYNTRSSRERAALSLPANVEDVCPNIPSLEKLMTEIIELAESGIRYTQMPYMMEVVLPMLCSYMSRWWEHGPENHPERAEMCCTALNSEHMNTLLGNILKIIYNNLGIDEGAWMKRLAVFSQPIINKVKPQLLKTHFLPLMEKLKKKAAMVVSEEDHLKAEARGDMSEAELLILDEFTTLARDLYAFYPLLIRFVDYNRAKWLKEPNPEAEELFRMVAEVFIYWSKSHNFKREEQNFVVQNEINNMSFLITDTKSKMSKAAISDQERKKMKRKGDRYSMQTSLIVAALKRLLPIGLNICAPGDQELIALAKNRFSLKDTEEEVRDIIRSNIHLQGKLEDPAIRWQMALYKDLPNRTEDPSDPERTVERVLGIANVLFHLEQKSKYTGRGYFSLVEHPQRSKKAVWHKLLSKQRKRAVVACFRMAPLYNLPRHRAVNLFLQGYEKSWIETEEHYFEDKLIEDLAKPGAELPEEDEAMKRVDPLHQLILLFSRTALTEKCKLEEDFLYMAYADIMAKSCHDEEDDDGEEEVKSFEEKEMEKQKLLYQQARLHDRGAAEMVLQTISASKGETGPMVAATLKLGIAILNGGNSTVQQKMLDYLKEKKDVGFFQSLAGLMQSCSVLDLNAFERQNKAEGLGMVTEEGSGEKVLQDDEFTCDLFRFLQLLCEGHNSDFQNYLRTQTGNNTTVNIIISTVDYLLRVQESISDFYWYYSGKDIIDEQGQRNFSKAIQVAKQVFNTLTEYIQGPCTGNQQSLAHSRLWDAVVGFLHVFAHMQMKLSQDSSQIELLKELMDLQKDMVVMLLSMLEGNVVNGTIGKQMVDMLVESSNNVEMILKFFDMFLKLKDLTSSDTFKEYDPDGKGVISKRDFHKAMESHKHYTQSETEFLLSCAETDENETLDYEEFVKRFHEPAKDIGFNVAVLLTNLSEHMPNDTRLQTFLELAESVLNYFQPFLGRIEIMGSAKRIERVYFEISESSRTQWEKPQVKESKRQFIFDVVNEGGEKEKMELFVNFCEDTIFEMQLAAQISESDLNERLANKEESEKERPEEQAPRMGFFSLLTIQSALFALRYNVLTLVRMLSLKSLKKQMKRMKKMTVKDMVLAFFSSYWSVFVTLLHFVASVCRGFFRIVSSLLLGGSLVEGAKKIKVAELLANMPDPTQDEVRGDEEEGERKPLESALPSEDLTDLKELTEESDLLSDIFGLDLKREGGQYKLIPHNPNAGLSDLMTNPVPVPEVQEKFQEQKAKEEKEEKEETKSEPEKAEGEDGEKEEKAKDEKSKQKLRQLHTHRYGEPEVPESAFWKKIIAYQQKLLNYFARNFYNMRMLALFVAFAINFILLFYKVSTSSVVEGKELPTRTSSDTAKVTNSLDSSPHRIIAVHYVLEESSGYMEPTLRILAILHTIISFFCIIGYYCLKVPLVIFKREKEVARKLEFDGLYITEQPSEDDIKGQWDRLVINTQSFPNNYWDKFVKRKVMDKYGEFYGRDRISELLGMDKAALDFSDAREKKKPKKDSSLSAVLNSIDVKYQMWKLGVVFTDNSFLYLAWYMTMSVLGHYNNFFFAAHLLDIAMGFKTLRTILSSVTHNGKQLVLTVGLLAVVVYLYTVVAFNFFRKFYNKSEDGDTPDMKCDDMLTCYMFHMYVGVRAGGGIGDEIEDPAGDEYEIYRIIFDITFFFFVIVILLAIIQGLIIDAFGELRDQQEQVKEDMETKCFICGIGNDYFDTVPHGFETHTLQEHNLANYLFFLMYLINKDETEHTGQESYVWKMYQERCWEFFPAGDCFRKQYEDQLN
Procedure: Freshly isolated mouse cardiac myocytes were loaded with the Ca^2+ indicator fluo-4/AM (Molecular Probes, 20 μM for 30 min). Confocal images were acquired using a confocal laser-scanning microscope (LSM510, Carl Zeiss) with a Zeiss Plan-Neofluor 40× oil immersion objective (NA≈1.3). Fluo-4/AM was excited by an argon laser (488 nm), and fluorescence was measured at >505 nm. Images were taken in the line-scan mode, with the scan line parallel to the long axis of the myocytes. Each image consisted of 512 line scans obtained at 1.92 ms intervals, each comprising 512 pixels at 0.10 μm separation. Digital image analysis used customer-designed programs coded in Interactive Data language (IDL) and a modified spark detection algorithm. Cheng, H. et al., Biophys. J., 76, 606-617 (1999).
Nitroxyl (HNO) confers positive inotropy in vivo. Here, it was determined whether HNO action stems from a direct influence on sarcoplasmic reticulum (SR) Ca^2+ cycling, involving enhanced Ca^2+ release from ryanodine receptors (RyR2). Myocytes were isolated from ST mice, suspended in Tyrode's solution (1 mM Ca^2+) and field stimulated (0.5 Hz, 25° C.). Sarcomere shortening (SS) was assessed by real-time image analysis, Ca^2+ transients from Indo-1 fluorescence. RyR2 activity was determined by optical imaging of Ca^2+ release from single Ca^2+ release units. The HNO donor Angeli's Salt (AS) induced dose-dependent inotropy (SS: 73±31% at 0.5 mM; 131±31% at 1 mM; all n=15, p<0.05 vs. base; <0.1 mM: no effect). In contrast, the NO donor DEA/NO reduced SS by 55-65% at 5-50 μM (both p<0.05 vs. base), with no effect at higher doses. […] However, co-infusion with the thiol-donating compound N-acetyl-L-cysteine (NAC, 3 mM) abolished AS inotropy.

[3] = molecular target: T1, RyR2; assay: RyR2 single channel recordings in planar lipid bilayers; assay type: biochemical; details: for open probability of the channel (Po): control 0.16±0.03
Procedure: Recording of single RyR2 in lipid bilayers was performed as previously described. Jiang, M. T. et al., Circ. Res., 91, 1015-1022 (2002). Briefly, a phospholipid bilayer of PE:PS (1:1 dissolved in n-decane to 20 mg/ml) was formed across an aperture of ˜300 μm diameter in a delrin cup. The cis chamber (900 μl) was the voltage control side connected to the head stage of a 200 A Axopatch amplifier, while the trans chamber (800 μl) was held at virtual ground. Both chambers were initially filled with 50 mM cesium methanesulfonate and 10 mM Tris/Hepes pH 7.2. After bilayer formation, cesium methanesulfonate was raised to 300 mM in the cis side and 100 to 200 μg of mouse cardiac SR vesicles was added. After detection of channel openings, Cs^+ in the trans chamber was raised to 300 mM to collapse the chemical gradient. Single channel data were collected at steady voltages (−30 mV) for 2-5 min. Channel activity was recorded with a 16-bit VCR-based acquisition and storage system at a 10 kHz sampling rate. Signals were analyzed after filtering with an 8-pole Bessel filter at a sampling frequency of 1.5-2 kHz. Data acquisition and analysis were done with Axon Instruments software and hardware (pClamp v8.0, Digidata 200 AD/DA interface).
To further test whether HNO directly interacted with RyR2 proteins to increase open probability, purified reconstituted RyR2 were expressed in planar lipid bilayers and steady-state activity recorded with or without AS. The cis (cytosolic) solution contained 10 μM activating Ca^2+ and recordings were made at positive 30 mV holding potential. […] The probability of the channel being open (Po) increased from an average 0.16±0.03 without AS to 0.46±0.07 at 0.3 mM AS added to the cytoplasmic side of the channel (n=4). This was reversible upon addition of 2 mM DTT (0.11±0.04). These findings support direct HNO-RyR2 interaction likely via a reversible reaction with thiol groups in the protein.

Structure (SMILES): [Na+].[Na+].[O-][N+]([O-])=NO [AS, Angeli's salt]
- nitrite generation on AS decomposition [1]: 25%
- calcium spark frequency relative to controls ([2]; 0.5 mM AS): ~7 times
- increase of calcium spark frequency ([2]; 0.5 mM AS): 7 fold
- frequency of calcium sparks (CSF) ([2]; 0.5 mM AS, controls 4±1): 26±3 sparks/100 μm/s
- rise in Ca2+ spark frequency ([2]; 1 mM AS, n=10-24): 18 fold
- individual spark amplitude, rise time and spatial width ([2]; AS): unaltered
- AS-induced increase in spark frequency after thiol (GSH) pre-treatment ([2]; reduced glutathione preincubation before AS): prevented; also recorded: abrogated
- open probability of the channel (Po) ([3]; 0.1 mM AS, cis side): 0.25±0.05
- open probability of the channel (Po) ([3]; 0.3 mM AS, cytoplasmic side): 0.46±0.07
- open probability of the channel (Po) ([3]; 1.0 mM AS, cis side): 0.69±0.11
- Po of AS-activated channels after DTT ([3]; 2 mM DTT added to cis side): 0.11±0.04
- unitary channel conductance ([3]; AS 0.1 to 1 mM): without altering
